The record followed here is patent US20240165243A1, “EGFR DEGRADERS AND METHODS OF USE” (BeiGene Switzerland GmbH, priority 2021, published 2024).

For orientation: DC50 means the concentration at which degradation of the target reaches its halfway point.

For this assay, the system named is EGFR (Del19/T790M/C797S). The experiment in a line: Cell degradation HTRF assay, H1975-clone #28 cells. In kind it is cell-based. To be noted: H1975-clone #28 (Del19/T790M/C797S) cells, 16 h treatment; for DC50: HTRF, read-out: H1975-clone#28 DTC DC50; for H1975-clone#28 DTC Dmax (%): maximum percentage of degradation. The method, then: Cell Degradation of Example 124-189
H1975-#28 and H1975-#25 cells are treated with compounds diluted in 0.2% DMSO cell culture medium on day 2, incubate for 16 h, 37° C., 5% CO2. the final concentration of compounds in all assay is start with 10 uM, 5-fold dilution, total 8 doses were included.
After 16 h treatment, add HTRF lysis buffer to each well; seal the plate and incubate 1 hour at room temperature on a plate shaker; Once the cells are lysed, 16 μL of cell lysate are transferred to a PE 384-well HTRF detection plate; 4 μL of pre-mixed HTRF antibodies are added to each well; Cover the plate with a plate sealer, spin 1000 rpm for 1 min, Incubate overnight at room temperature; Read on BMG PheraStar with HTRF protocol (337 nm-665 nm-620 nm).
The inhibition (degradation) percentage of the compound was calculated by the following equation:
Inhibition percentage of Compound=100−100×(Signal−low control)/(High control−low control), wherein signal=each test compound group.
High control=Cell group with added DMSO and without compound, indicating microplate readings without EGFR degradation;
Dmax is the maximum percentage of inhibition (degradation).
The IC50 (DC50) value of a compound can be obtained by fitting the following equation
Y=Bottom+(TOP−Bottom)/(1+((IC50/X)^hillslope))
Wherein, X and Y are known values, and IC50, Hillslope, Top and Bottom are the parameters obtained by fitting with software. Y is the inhibition percentage (calculated from the equation), X is the concentration of the compound; IC50 is the concentration of the compound when the 50% inhibition is reached. The smaller the IC50 value is, the stronger the inhibitory ability of the compound is. Vice versa, the higher the IC50 value is, the weaker the ability the inhibitory ability of the compound is; Hillslope represents the slope of the fitted curve, generally around 1*; Bottom represents the minimum value of the curve obtained by data fitting, which is generally 0%±20%; Top represents the maximum value of the curve obtained by data fitting, which is generally 100%±20%. The experimental data were fitted by calculating and analyzing with Dotmatics data analysis software. When Dmax<50%, DC50 will be automatically assigned as larger than […].
(In TR-FRET formats the signal depends on donor and acceptor labels being close together.)

Regarding `CCOc1cc(N2CCC(N3CCN(CCc4ccc5c(c4)oc(=O)n5C4CCC(=O)NC4=O)CC3)CC2)c(CC)cc1Nc1ncc(Br)c(Nc2cnc3cc(F)ccc3c2P(C)(C)=O)n1` (centres unmarked) [Example 149, 3-(6-(2-(4-(1-(4-((5-bromo-4-((4-(dimethylphosphoryl)-7-fluoroquinolin-3-yl)amino)pyrimidin-2-yl)amino)-5-ethoxy-2-ethylphenyl)piperidin-4-yl)piperazin-1-yl)ethyl)-2-oxobenzo[d]oxazol-3(2H)-yl)piperidine-2,6-dione], the DC50 amounted to 1.3 nM and the “H1975-clone#28 DTC Dmax (%)” value is listed as 73%.
The corresponding values for `CCc1cc(Nc2ncc(Br)c(Nc3cnc4cc(F)ccc4c3P(C)(C)=O)n2)c(OC)cc1N1CCC(N2CCN(CCc3cc(F)c4c(c3)oc(=O)n4[C@H]3CCC(=O)NC3=O)CC2)CC1` [Example 151, (S)-3-(6-(2-(4-(1-(4-((5-bromo-4-((4-(dimethylphosphoryl)-7-fluoroquinolin-3-yl)amino)pyrimidin-2-yl)amino)-2-ethyl-5-methoxyphenyl)piperidin-4-yl)piperazin-1-yl)ethyl)-4-fluoro-2-oxobenzo[d]oxazol-3(2H)-yl)piperidine-2,6-dione] are 1.1 nM and 79%.
The corresponding values for `CCc1cc(Nc2ncc(Br)c(Nc3cnc4cc(F)ccc4c3P(C)(C)=O)n2)c(OC)cc1N1CCC(N2CCN(CCc3ccc4c(c3)oc(=O)n4C3CCC(=O)NC3=O)CC2)CC1` (centres unmarked) [Example 153, 3-(6-(2-(4-(1-(4-((5-bromo-4-((4-(dimethylphosphoryl)-7-fluoroquinolin-3-yl)amino)pyrimidin-2-yl)amino)-2-ethyl-5-methoxyphenyl)piperidin-4-yl)piperazin-1-yl)ethyl)-2-oxobenzo[d]oxazol-3(2H)-yl)piperidine-2,6-dione] are 0.8 nM and 77%.
The corresponding values for `CCc1cc(Nc2ncc(Br)c(Nc3cnc4ccccc4c3P(C)(C)=O)n2)c(OC)cc1N1CCC(N2CCN(CCc3cccc4c3n(C3CC3)c(=O)n4C3CCC(=O)NC3=O)CC2)CC1` (centres unmarked) [Example 155, 3-(4-(2-(4-(1-(4-((5-bromo-4-((4-(dimethylphosphoryl)quinolin-3-yl)amino)pyrimidin-2-yl)amino)-2-ethyl-5-methoxyphenyl)piperidin-4-yl)piperazin-1-yl)ethyl)-3-cyclopropyl-2-oxo-2,3-dihydro-1H-benzo[d]imidazol-1-yl)piperidine-2,6-dione] are 0.7 nM and 85%.
In the case of `CCc1cc(Nc2ncc(Br)c(Nc3cnc4ccccc4c3P(C)(C)=O)n2)c(OC)cc1N1CCC(N2CCN(CCc3c(F)ccc4c3n(C)c(=O)n4C3CCC(=O)NC3=O)CC2)CC1` (centres unmarked) [Example 159, 3-(4-(2-(4-(1-(4-((5-bromo-4-((4-(dimethylphosphoryl)quinolin-3-yl)amino)pyrimidin-2-yl)amino)-2-ethyl-5-methoxyphenyl)piperidin-4-yl)piperazin-1-yl)ethyl)-5-fluoro-3-methyl-2-oxo-2,3-dihydro-1H-benzo[d]imidazol-1-yl)piperidine-2,6-dione], the DC50 was 1.4 nM and the “H1975-clone#28 DTC Dmax (%)” value worked out at 85%.
For `CCc1cc(Nc2ncc(Br)c(Nc3cnc4ccccc4c3P(C)(C)=O)n2)c(OC)cc1N1CCC(N2CCN(CCc3cccc4c3n(CC)c(=O)n4C3CCC(=O)NC3=O)CC2)CC1` (centres unmarked) [Example 163, 3-(4-(2-(4-(1-(4-((5-bromo-4-((4-(dimethylphosphoryl)quinolin-3-yl)amino)pyrimidin-2-yl)amino)-2-ethyl-5-methoxyphenyl)piperidin-4-yl)piperazin-1-yl)ethyl)-3-ethyl-2-oxo-2,3-dihydro-1H-benzo[d]imidazol-1-yl)piperidine-2,6-dione] the same measures were 1.1 nM and 86%.
In the case of `CCc1cc(Nc2ncc(Br)c(Nc3cnc4ccccc4c3P(C)(C)=O)n2)c(OC)cc1N1CCC(N2CCN(CCc3cccc4c3C(C)(C)C(=O)N4C3CCC(=O)NC3=O)CC2)CC1` (centres unmarked) [Example 164, 3-(4-(2-(4-(1-(4-((5-bromo-4-((4-(dimethylphosphoryl)quinolin-3-yl)amino)pyrimidin-2-yl)amino)-2-ethyl-5-methoxyphenyl)piperidin-4-yl)piperazin-1-yl)ethyl)-3,3-dimethyl-2-oxoindolin-1-yl)piperidine-2,6-dione], the DC50 was determined as 2.1 nM and the “H1975-clone#28 DTC Dmax (%)” value is 81%.
The corresponding values for `CCc1cc(Nc2ncc(Br)c(Nc3cnc4c(F)cccc4c3P(C)(C)=O)n2)c(OC)cc1N1CCC(N2CCN(CCC3CCN(c4cc(F)c(C5CCC(=O)NC5=O)c(F)c4)CC3)CC2)CC1` (centres unmarked) [Example 165, 3-(4-(4-(2-(4-(1-(4-((5-bromo-4-((4-(dimethylphosphoryl)-8-fluoroquinolin-3-yl)amino)pyrimidin-2-yl)amino)-2-ethyl-5-methoxyphenyl)piperidin-4-yl)piperazin-1-yl)ethyl)piperidin-1-yl)-2,6-difluorophenyl)piperidine-2,6-dione] are 4.2 nM and 84%.
The corresponding values for `CCc1cc(Nc2ncc(Br)c(Nc3cnc4cc(F)ccc4c3P(C)(C)=O)n2)c(OC)cc1N1CCC(N2CCN(CCc3cccc4c3n(C)c(=O)n4C3CCC(=O)NC3=O)CC2)CC1` (centres unmarked) [Example 167, 3-(4-(2-(4-(1-(4-((5-bromo-4-((4-(dimethylphosphoryl)-7-fluoroquinolin-3-yl)amino)pyrimidin-2-yl)amino)-2-ethyl-5-methoxyphenyl)piperidin-4-yl)piperazin-1-yl)ethyl)-3-methyl-2-oxo-2,3-dihydro-1H-benzo[d]imidazol-1-yl)piperidine-2,6-dione] are 0.8 nM and 74%.
For `CCc1cc(Nc2ncc(Br)c(Nc3cnc4ccccc4c3P(C)(C)=O)n2)c(OC)cc1N1CCC(N2CCN(C(=O)[C@H]3CCN(c4ccc5c(c4)C(C)(C)C(=O)N5C4CCC(=O)NC4=O)C3)CC2)CC1` (stereo partly drawn) [Example 168, 3-(5-((S)-3-(4-(1-(4-((5-bromo-4-((4-(dimethylphosphoryl)quinolin-3-yl)amino)pyrimidin-2-yl)amino)-2-ethyl-5-methoxyphenyl)piperidin-4-yl)piperazine-1-carbonyl)pyrrolidin-1-yl)-3,3-dimethyl-2-oxoindolin-1-yl)piperidine-2,6-dione] the same measures were 2 nM and 47%.
In the case of `CCc1cc(Nc2ncc(Br)c(Nc3cnc4ccccc4c3P(C)(C)=O)n2)c(OC)cc1N1CCC(N2CCN(C(=O)C3CN(c4cccc5c4C(C)(C)C(=O)N5C4CCC(=O)NC4=O)C3)CC2)CC1` (centres unmarked) [Example 169, 3-(4-(3-(4-(1-(4-((5-bromo-4-((4-(dimethylphosphoryl)quinolin-3-yl)amino)pyrimidin-2-yl)amino)-2-ethyl-5-methoxyphenyl)piperidin-4-yl)piperazine-1-carbonyl)azetidin-1-yl)-3,3-dimethyl-2-oxoindolin-1-yl)piperidine-2,6-dione], the half-maximal degradation concentration (DC50) came to 4.6 nM and the “H1975-clone#28 DTC Dmax (%)” value is recorded as 65%.
The corresponding values for `CCc1cc(Nc2ncc(Br)c(Nc3cnc4ccc(F)cc4c3P(C)(C)=O)n2)c(OC)cc1N1CCC(N2CCN(CCc3cccc4c3n(C)c(=O)n4C3CCC(=O)NC3=O)CC2)CC1` (centres unmarked) [Example 170, 3-(4-(2-(4-(1-(4-((5-bromo-4-((4-(dimethylphosphoryl)-6-fluoroquinolin-3-yl)amino)pyrimidin-2-yl)amino)-2-ethyl-5-methoxyphenyl)piperidin-4-yl)piperazin-1-yl)ethyl)-3-methyl-2-oxo-2,3-dihydro-1H-benzo[d]imidazol-1-yl)piperidine-2,6-dione] are 2.1 nM and 82%.
The corresponding values for `CCc1cc(Nc2ncc(Br)c(Nc3cnc4ccc(C(F)(F)F)cc4c3P(C)(C)=O)n2)c(OC)cc1N1CCC(N2CCN(CCc3cc(F)c(C4CCC(=O)NC4=O)c(F)c3)CC2)CC1` (centres unmarked) [Example 171, 3-(4-(2-(4-(1-(4-((5-bromo-4-((4-(dimethylphosphoryl)-6-(trifluoromethyl)quinolin-3-yl)amino)pyrimidin-2-yl)amino)-2-ethyl-5-methoxyphenyl)piperidin-4-yl)piperazin-1-yl)ethyl)-2,6-difluorophenyl)piperidine-2,6-dione] are 4.3 nM and 79%.
